Measured values from patent US10610507B2, “Methods for the treatment of sialorrhea” (NeuRX Pharmaceuticals LLC, priority 2012, dated 2020).

Key:
[1] = cited from earlier work
in vitro = settings: human, liver microsomes
[2] = Human liver microsome incubation study (metabolic stability)
[3] = human liver microsome incubation

Question: Which results are given for `CCN(CC)CC#CCOC(=O)C(O)(c1ccccc1)C1CCCCC1` (racemic) [Oxybutynin]?
Answer: absolute bioavailability ([1]; administered orally): about 6%; oral bioavailability ([1]; after oral administration, pre-systemic metabolism): approximately 6.2%; inter individual variation in maximal oxybutynin plasma concentration (Cmax) ([1]; after oral administration): 8 fold; inter individual variation in oxybutynin AUC ([1]; after oral administration): 13 fold; increase of oxybutynin plasma levels ([1]; co-administered with ketoconazole vs without ketoconazole): 3-4 fold; half-life (in vitro): 5.2 min; microsomal CLint (in vitro): 267 µL/min/mg

Question: What does the source list for `CCNCC#CCOC(=O)C(O)(c1ccccc1)C1CCCCC1` (stereo not shown) [N-desethyloxybutynin, 4-(ethylamino) but-2-ynyl2-cyclohexyl-2-hydroxy-2-phenylacetate]?
Answer: stability to metabolism by human liver microsomes relative to oxybutynin ([2]; compared with oxybutynin): 10 times; Clint [2, 3]: 0.0218 ml/min/mg protein; Half Life [2, 3]: >60 (63.6) mins
